Assay results reported in PubChem BioAssay AID1996.
Values after ≈ are worked out from the molar mass of the structure shown.

Settings: buffer; pH 7.4; 200.0 µM

Row | SMILES | solubility kinetic [µg/mL]
1 | COc1cccc(C2C([N+](=O)[O-])=C(N)Oc3cc(C)oc(=O)c32)c1 (stereo unspecified) | > 49.5
2 | CCc1sc(C(=O)N2CCN(C(=O)c3ccccc3)CC2)cc1C | > 51.4
3 | Cc1cccc(S(=O)(=O)Nc2cc(Cl)ccc2N2CCOCC2)c1 | 3.6 (≈ 9.81 µM)
4 | CC(=O)NS(=O)(=O)c1ccc(NC(=O)c2cccc3ccccc23)cc1 | 53.9 (≈ 146 µM)
5 | COc1cc(C=NNC(=O)c2ccccc2-n2cccc2)ccc1O | > 50.3
6 | COC(=O)NC(C)N1C(=O)C2C3C=CC(C3)C2C1=O (stereo unspecified) | > 39.6
7 | CN1CCN(C(=O)C23CCC(C)(C(=O)C2Br)C3(C)C)CC1 (stereo unspecified) | > 53.6
8 | Cl.OCCNCCNCc1ccccc1OCc1ccccc1 | > 50.5
9 | Cc1ccc(OCC(=O)NC2CC(C)(C)NC(C)(C)C2)c(C)c1 | > 47.8
10 | O=C(Cc1ccccc1)NCC(=O)OCc1ccccc1F | 17.3 (≈ 57.4 µM)
11 | Cc1[nH]c2ccccc2c1C(=O)CSC(=S)N1CCN(C)CC1 | 2.4 (≈ 6.91 µM)
12 | CCOc1ccc(Cc2noc3c2C(=O)CC(C)(C)C3)cc1OCC | 46.4 (≈ 135 µM)
13 | CC1CCC(NS(=O)(=O)c2cccc3nsnc23)CC1 (stereo unspecified) | > 46.7
14 | CN(C)C(=O)C12CCC(C)(C(=O)C1Br)C2(C)C (stereo unspecified) | > 45.3
15 | CCc1cccc(NC(=O)C2CC2c2ccccc2)c1 (stereo unspecified) | 0.7 (≈ 2.64 µM)
16 | Cc1ccc2c(CN(C)Cc3ccc(Cl)cc3)cc(=O)oc2c1 | 1.9 (≈ 5.8 µM)
17 | COc1ccccc1NC(=O)Cn1nc(C)n2cccc2c1=O | > 46.8
18 | O=C(Nc1ccccc1)Nc1cccc2nsnc12 | 5.7 (≈ 21.1 µM)
19 | CCOC(=O)CN1C(=O)S/C(=C/c2ccco2)C1=O | 21.2 (≈ 75.4 µM)
20 | Cc1ccc(NC(=O)CCC(=O)NNC(=O)C(C)(C)C)c(C)c1 | > 47.9
21 | CCc1ccc(N2C(=O)CC(N3CCN(c4ccccn4)CC3)C2=O)cc1 (stereo unspecified) | > 54.7
22 | Cc1cccc(N2CCN(C(=O)c3cccs3)CC2)c1C | 23.8 (≈ 79.2 µM)
23 | COc1ccccc1C(=O)NCCNc1ccc([N+](=O)[O-])cc1Cl | 0.7 (≈ 2 µM)
24 | Cc1cccc(N2CCN(CC3CCCCC3)CC2)c1C | 2.9 (≈ 10.1 µM)

Row | SMILES | solubility kinetic [µg/mL]
25 | Cc1ccc(C)c(NC(=O)CN(C)C(C)C(=O)N2CC(C)CC(C)C2)c1 (stereo unspecified) | 47.9 (≈ 133 µM)
26 | COc1ccc(NC(=O)CCn2ccnc2)c(OC)c1 | 41.1 (≈ 149 µM)
27 | O=C(c1cc2c(ccc3ccccc32)o1)N1CCCCC1 | 2.6 (≈ 9.31 µM)
28 | Cc1nc(N)nc(N/N=C/c2ccccc2)n1 | > 34.2
29 | COC(=O)C(Cc1ccc(O)cc1)NC(=O)c1ccc2c(c1)OCCO2 (stereo unspecified) | > 53.6
30 | Cc1cc2ccccn2c1C(=O)Nc1cccc(Cl)c1 | < 0.3
31 | Cc1ccsc1C(=O)OCC(=O)Nc1nnc(-c2ccccc2)o1 | > 51.5
32 | O=C(CCc1nc2ccccc2s1)NCc1ccccc1F | > 47.2
33 | O=C1CN(C(=O)COC(=O)[C@@H]2CCCN2S(=O)(=O)c2ccc(Cl)cc2)c2ccccc2N1 | 59.1 (≈ 124 µM)
34 | Cc1ccc(SCC(=O)N2CCC(C(N)=O)CC2)cc1 | > 43.9
35 | O=C(Nc1cccc(C(=O)NC2CCCCC2)c1)c1ccccc1 | 2.8 (≈ 8.68 µM)
36 | COC(=O)c1cc2c(=O)c3ccccc3oc2nc1/C=C/N(C)C | 30.1 (≈ 92.8 µM)
37 | Cc1ccc2c(CN3CC(C)CC(C)C3)cc(=O)oc2c1 (stereo unspecified) | 4.3 (≈ 15.1 µM)
38 | Cc1ccc(S(=O)(=O)NCCC(=O)NC2CCCCC2)cc1 | > 48.7
39 | COc1cccc(C(=O)NCCCNC(=O)c2cccnc2)c1 | > 47
40 | COc1ccccc1CC(=O)Nc1cc(C)ccn1 | > 38.4
41 | O=C(Nc1cccc(C(=O)Nc2ccc(F)cc2F)c1)c1ccccc1 | 0.4 (≈ 1.14 µM)
42 | Cc1onc(-c2c(F)cccc2Cl)c1C(=O)N=C(N)N1CCCC1 | 5 (≈ 14.3 µM)
43 | CC(C)n1c(Oc2ccc(F)cc2)nc2c1c(=O)n(C)c(=O)n2C | 8.1 (≈ 24.4 µM)
44 | CC(=O)Nc1ccc(N/C=C/C(=O)c2ccc(Cl)cc2)cc1 | 2.4 (≈ 7.62 µM)
45 | CN(C)CC#CCn1c2ccccc2c2ccccc21.Cl | > 44.8
46 | O=c1[nH]c(=O)n(C2CCCCCC2)c(O)c1C=NCc1cccnc1 | 8.2 (≈ 23.9 µM)
47 | CCC(C)c1ccc(NC(=O)Nc2cccnc2)cc1 (stereo unspecified) | 33.2 (≈ 123 µM)
48 | CC(NC(=O)c1ccc([N+](=O)[O-])o1)C1CC2CCC1C2 (stereo unspecified) | > 41.7

Row | SMILES | solubility kinetic [µg/mL]
49 | Cc1ccc(S(=O)(=O)N(CC2CO2)c2cccc([N+](=O)[O-])c2)cc1 (stereo unspecified) | 43.9 (≈ 126 µM)
50 | CCC(CC)C(=O)c1c[nH]c(C(=O)OC)c1 | > 33.5
51 | Cl.Clc1cccc(CN2C3=NCCCN3c3ccccc32)c1 | > 50.1
52 | CCc1nc(N2CCCCC2C(=O)O)c2oc3ccccc3c2n1 (stereo unspecified) | > 48.8
53 | CCNC(=O)[C@H]1O[C@@H](n2cnc3c(N)ncnc32)[C@H](O)[C@@H]1O | > 46.2
54 | C=CCn1c(=O)c2ccccc2n2c(SCC(=O)O)nnc12 | > 47.4
55 | Cc1onc(-c2ccccc2Cl)c1C(=O)Nc1ccccc1O | 17.2 (≈ 52.3 µM)
56 | O=C(NCCc1ccccc1)C1CCC(=O)N1C1CCCC1 (stereo unspecified) | > 45.1
57 | Cc1ccc(CSc2nccc(-c3c(C)nc4ccccn34)n2)cc1 | 1.6 (≈ 4.62 µM)
58 | COC(=O)C(=CC(=CN(C)C)C=C(C(=O)OC)C(=O)OC)C(=O)OC | > 53.3
59 | CCCCc1nc(Cl)c(C#N)c2c1CCC2 | 3.4 (≈ 14.5 µM)
60 | COc1ccc(N2C(=O)C(F)(F)C2c2ccc(C)cc2)cc1OC (stereo unspecified) | < 0.7
61 | Cc1ccc(NC2=C(Cl)C(=O)OC2OC(=O)c2ccc(C)cc2)cc1 (stereo unspecified) | 2.6 (≈ 7.27 µM)
62 | Cc1cc([N+](=O)[O-])ccc1NC(=O)CCC(=O)N1CCCCC1 | > 47.9
63 | Cc1ccccc1CC(=O)Nc1ccon1 | 30.3 (≈ 140 µM)
64 | Cc1ccc(CN2CC(C(=O)Nc3ccc(C)cn3)CC2=O)cc1 (stereo unspecified) | > 48.5
65 | CN1CCN(c2oc(Cc3cccc4ccccc34)nc2C#N)CC1 | 43.5 (≈ 131 µM)
66 | O=C(COC(=O)/C=C/c1ccc(F)cc1)NCc1ccco1 | 5.1 (≈ 16.8 µM)
67 | COCCNC(=O)Cn1cc(/C=C(\C#N)C(=O)NC2CC2)c2ccccc21 | > 55
68 | CC(=O)c1ccc(NC(=O)/C(C#N)=C/c2ccncc2)cc1 | 43.2 (≈ 148 µM)
69 | Cl.OC(CNCC#Cc1ccccc1)c1ccccc1 (stereo unspecified) | 35.9
70 | CC1CCN(S(=O)(=O)c2cccc(S(=O)(=O)N3CCCC3)c2)CC1 | 28.1 (≈ 75.4 µM)
71 | CC1CN(C(=O)COc2ccc3ccccc3c2)CC(C)O1 (stereo unspecified) | > 44.9
72 | NC(=S)C(c1ccccc1)c1ncc(C(F)(F)F)cc1Cl (stereo unspecified) | 41.7 (≈ 126 µM)

Row | SMILES | solubility kinetic [µg/mL]
73 | Cc1cc(N2CCN(C(=O)c3ccco3)CC2)c2ccccc2n1 | 44.7 (≈ 139 µM)
74 | Cc1ccc2[nH]c(C)c(CC(=O)NCc3ccccc3)c2c1 | > 43.9
75 | Cc1ccccc1CSc1nc2ccccc2c(=O)n1C | 1.5 (≈ 5.06 µM)
76 | CC1CCCN(C(=O)CNS(=O)(=O)c2cccs2)C1 (stereo unspecified) | > 45.4
77 | COc1ccc(NC(=O)CNc2cc(S(=O)(=O)N3CCOCC3)ccc2N2CCOCC2)c(OC)c1 | 4.2 (≈ 8.07 µM)
78 | Clc1ccc(C[n+]2cc(-c3ccc(Cl)cc3)n3c2CCC3)cc1.[Cl-] | > 57
79 | COc1ccc(CC(=O)OCN2C(=O)c3ccccc3C2=O)cc1OC | > 53.3
80 | CN(C)CC[n+]1ccc(C(=O)c2ccccc2)cc1.Cl.[Cl-] | > 49.1
81 | O=C(Nc1cccc(Cl)c1)c1cnc[nH]1 | > 33.2
82 | COc1ccc(CCn2c(C)cc(C(=O)COC(=O)c3cnccn3)c2C)cc1 | 37.3 (≈ 94.8 µM)
83 | CCCN1C(=O)C2(OCCO2)c2cc(Cl)ccc21 | > 40.2
84 | CCCCCC(=O)Oc1cccc(N2C(=O)C3CCCCC3C2=O)c1 (stereo unspecified) | 4.3 (≈ 12.5 µM)
85 | O=C(CN1CCCC1)Nc1ccc(OCc2ccccc2)cc1 | > 46.6
86 | O=[N+]([O-])c1ccc(S(=O)(=O)Nc2nc(-c3ccccc3)cs2)cc1 | > 54.2
87 | COc1ccc(NC(=O)c2ccc3c(c2)C(=O)N(Cc2ccncc2)C3=O)cc1S(N)(=O)=O | 3.4 (≈ 7.29 µM)
88 | COc1ccc(C(=O)O/N=C(\N)Cc2cccs2)cc1OC | > 48.1
89 | Cc1ccc(SCC(=O)NCc2ccccc2)cc1 | > 40.7
90 | COC(=O)C1CCN(Cc2cc(=O)oc3cc(C)c(Cl)cc23)CC1 | 4.7 (≈ 13.4 µM)
91 | OCCNC(=S)Nc1cccc(Cl)c1Cl | > 39.8
92 | Cc1cccc(OCCN2C(=O)c3ccccc3C2=O)c1 | 4.6 (≈ 16.4 µM)
93 | O=C(Nc1ccc(Cl)cc1)C1(S(=O)(=O)c2ccccc2)CC1 | 7.7 (≈ 22.9 µM)
94 | CC(Cc1c[nH]c2ccccc12)C(=O)NCc1ccco1 (stereo unspecified) | > 42.4
95 | Oc1ccc2ccccc2c1C=NC12CN3CCN(CN(C3)C1)C2 | 46.5 (≈ 144 µM)
96 | C=CCNC(=S)Nc1sc2c(c1C(N)=O)CCCC2 | 18.2 (≈ 61.6 µM)

Row | SMILES | solubility kinetic [µg/mL]
97 | O=C1CC2C(=O)NCCN2C(=NC(=O)c2ccc(Cl)cc2)N1 (stereo unspecified) | 23.5 (≈ 73.3 µM)
98 | CCOC(=O)c1cc(C)nc(Sc2ccc(C)cc2)c1C#N | 3.1 (≈ 9.92 µM)
99 | CCOc1ccc2oc(C(=O)Nc3ccc4c(c3)OCO4)c(C)c2c1 | 5.7 (≈ 16.8 µM)
100 | CC(=O)N1C[C@H](O)C[C@H]1C(=O)O | > 26
101 | CN1CCN(Cc2cc(=O)n3ccsc3n2)CC1 | 35.7 (≈ 135 µM)
102 | COc1cc(CNC(C)C23CC4CC(CC(C4)C2)C3)cc(OC)c1OC.Cl (stereo unspecified) | > 59.4
103 | O=C(COC(=O)c1cccnc1Cl)NCC1CCCO1 (stereo unspecified) | > 44.8
104 | CCOc1ccc(S(=O)(=O)Nc2nccs2)cc1 | > 42.7
105 | Cc1ccc2c(=O)[nH]c(Nc3nc(C)cc(-c4ccccc4)n3)nc2c1 | < 0.1
106 | O=C(COC(=O)c1cccc(S(=O)(=O)N2CCOCC2)c1)NCc1ccccc1 | > 62.8
107 | COc1cc(/C=C/C(=O)OCC(=O)NC(C)c2ccccc2)cc(OC)c1OC (stereo unspecified) | 54.9 (≈ 137 µM)
108 | C=CCN1C(=O)CSC1=Nc1ccc(C(=O)O)cc1 | > 41.4
109 | CN(C)c1cccc(N(C)C)c1CNC(=O)NC(=O)c1c(F)cccc1F | 0.3 (≈ 0.797 µM)
110 | COc1cc(C(=O)OCC(=O)NC2CC2)ccc1OCCC(C)C | 6.8 (≈ 20.3 µM)
111 | COc1cc2c(cc1OC)C(c1ccccc1C)CC(=O)N2 (stereo unspecified) | < 0.6
112 | O=C(NCCNc1ccc([N+](=O)[O-])cc1)c1cc(F)c(F)cc1Cl | 2 (≈ 5.62 µM)
113 | O=C(CCS(=O)(=O)c1ccccc1)N1CCCc2ccccc21 | 49.2 (≈ 149 µM)
114 | COc1ccc(CNC(=O)CC(C)c2ccccc2)cc1 (stereo unspecified) | 36.9 (≈ 130 µM)
115 | CC(=O)Nc1ccc(NC(=O)c2c(-c3ccccc3)noc2C)cn1 | 11.1 (≈ 33 µM)
116 | Cc1ccc(/C=C2\CCn3c2nc2cc(C(=O)O)ccc2c3=O)c(C)c1 | 45.7 (≈ 132 µM)
